Test results reported in ChEMBL document CHEMBL4038270, “Synthesis of heterocyclic ring-fused tricyclic diterpene analogs as novel inhibitors of RANKL-induced osteoclastogenesis and bone resorption” (Eur J Med Chem, 2017).
Calls of active or inactive are those of the source. No cut-off for these calls is given here.

Columns and labels:
[1] = Cytotoxicity against C57BL/6 mouse bone marrow monocytes assessed as reduction in cell viability at 20 uM after 72 hrs in presence of M-CSF by MTS assay; type: cell-based; settings: bone marrow monocyte
Bone marrow monocyte [2] = experiment: Inhibition of RANKL-induced TRAP mRNA expression in C57BL/6 mouse bone marrow monocytes measured after 5 days in presence of M-CSF by SYBR green-dye based qRT-PCR analysis; type: functional, cell-based
[3] = Effect on osteblast differentiation in mouse Mesenchymal stem cells at 2 to 10 uM measured after 7 days in presence of dexamethasone/b-glycerophosphate/Vitamin C by ALP staining assay; type: cell-based; settings: mesenchymal stem cell, 168 h
Mus musculus [4] = experiment: Protection against ovariectomized-induced osteoporosis in C57BL/6 mouse assessed as increase in trabecular number of femur at 20 mg/kg, ip administered for 60 days by micro computed tomography; type: functional, organism-based
Bone marrow monocyte [5] = experiment: Inhibition of RANKL-induced CTR mRNA expression in C57BL/6 mouse bone marrow monocytes at 10 uM in presence of M-CSF by SYBR green-dye based qRT-PCR analysis; type: functional, cell-based; settings: TDE = time-dependent effect
[6] = Inhibition of RANKL-induced C57BL/6 mouse bone marrow monocytes differentiation into osteoclasts at 0.1 uM after 6 days in presence of M-CSF by tartrate-resistant acid phosphatase staining based assay relative to control; type: functional; settings: C57BL/6, Bone marrow monocyte, 144 h
Mus musculus [7] = experiment: Inhibition of ovariectomized-induced osteoclast activity in C57BL/6 mouse femur at 5 mg/kg, ip administered for 60 days by tartrate-resistant acid phosphatase staining; type: functional, organism-based
Bone marrow monocyte [8] = experiment: Inhibition of RANKL-induced CTR mRNA expression in C57BL/6 mouse bone marrow monocytes measured after 5 days in presence of M-CSF by SYBR green-dye based qRT-PCR analysis; type: functional, cell-based
Bone marrow monocyte [9] = experiment: Inhibition of RANKL-induced NFATc1 mRNA expression in C57BL/6 mouse bone marrow monocytes at 10 uM in presence of M-CSF by SYBR green-dye based qRT-PCR analysis; type: functional, cell-based; settings: TDE = time-dependent effect
Bone marrow monocyte [10] = experiment: Inhibition of RANKL-induced NFATc1 mRNA expression in C57BL/6 mouse bone marrow monocytes measured after 5 days in presence of M-CSF by SYBR green-dye based qRT-PCR analysis; type: functional, cell-based
Mus musculus [11] = experiment: Inhibition of ovariectomized-induced osteoclast activity in C57BL/6 mouse femur at 20 mg/kg, ip administered for 60 days by tartrate-resistant acid phosphatase staining method; type: functional, organism-based
Mus musculus [12] = experiment: Protection against ovariectomized-induced osteoporosis in C57BL/6 mouse assessed as increase in ratio of bone volume to tissue volume of femur at 20 mg/kg, ip administered for 60 days by micro computed tomography; type: functional, organism-based
Mus musculus [13] = experiment: Anti-osteoporotic activity in ovariectomized-induced osteoporosis in C57BL/6 mouse assessed as increase in bone strength at 20 mg/kg, ip administered for 60 days by three point bending test; type: functional, organism-based
[14] = Cytotoxicity against C57BL/6 mouse bone marrow monocytes assessed as reduction in cell viability at 2 uM after 72 hrs in presence of M-CSF by MTS assay; type: cell-based; settings: bone marrow monocyte
[15] = Inhibition of RANKL-induced C57BL/6 mouse bone marrow monocytes differentiation into osteoclasts at 2 uM after 6 days in presence of M-CSF by tartrate-resistant acid phosphatase staining based assay relative to control; type: functional; settings: C57BL/6, Bone marrow monocyte, 144 h
Mus musculus [16] = species: Mus musculus; experiment: Inhibition of RANKL-induced IKK mediated IkappaBalpha degradation in mouse […] cells at 10 uM pretreated for 4 hrs followed by RANKL stimulation measured for 60 mins by Western blot method; type: cell-based
Mus musculus [17] = experiment: Toxicity in ovariectomized C57BL/6 mouse assessed as effect on body weight at 5 to 20 mg/kg, ip administered for 60 days measured every 7 days during compound dosing; type: organism-based; settings: in vivo
[18] = biological target: MAP kinase p38 (Mus musculus) (UniProt P47811+O08911+Q9WUI1+Q9Z1B7); experiment: Inhibition of RANKL-induced p38 phosphorylation in mouse […] cells at 10 uM pretreated for 4 hrs followed by RANKL stimulation measured for 60 mins by Western blot method; type: cell-based
Mus musculus [19] = species: Mus musculus; experiment: Inhibition of RANKL-induced IKK-mediated NF-kappa-B p65 phosphorylation in mouse […] cells at 10 uM pretreated for 4 hrs followed by RANKL stimulation measured for 60 mins by Western blot method; type: cell-based
Bone marrow monocyte [20] = experiment: Inhibition of RANKL-induced C-src mRNA expression in C57BL/6 mouse bone marrow monocytes at 10 uM in presence of M-CSF by SYBR green-dye based qRT-PCR analysis; type: functional, cell-based; settings: TDE = time-dependent effect
[21] = Inhibition of RANKL-induced C57BL/6 mouse bone marrow monocytes differentiation into osteoclasts at 0.5 uM after 6 days in presence of M-CSF by tartrate-resistant acid phosphatase staining based assay relative to control; type: functional; settings: C57BL/6, Bone marrow monocyte, 144 h
Bone marrow monocyte [22] = experiment: Inhibition of RANKL-induced cathepsin K mRNA expression in C57BL/6 mouse bone marrow monocytes at 10 uM in presence of M-CSF by SYBR green-dye based qRT-PCR analysis; type: functional, cell-based; settings: TDE = time-dependent effect
Mus musculus [23] = species: Mus musculus; experiment: Inhibition of RANKL-induced ERK phosphorylation in mouse […] cells at 10 uM pretreated for 4 hrs followed by RANKL stimulation measured for 60 mins by Western blot method; type: cell-based
Bone marrow monocyte [24] = experiment: Inhibition of RANKL-induced TRAP mRNA expression in C57BL/6 mouse bone marrow monocytes at 10 uM in presence of M-CSF by SYBR green-dye based qRT-PCR analysis; type: functional, cell-based; settings: TDE = time-dependent effect
Mus musculus [25] = experiment: Protection against ovariectomized-induced osteoporosis in C57BL/6 mouse assessed as reduction in femur structure model index at 20 mg/kg, ip administered for 60 days by micro computed tomography; type: functional, organism-based
Mus musculus [26] = experiment: Protection against ovariectomized-induced osteoporosis in C57BL/6 mouse assessed as increase in trabecular thickness of femur at 20 mg/kg, ip administered for 60 days by micro computed tomography; type: functional, organism-based
Bone marrow monocyte [27] = experiment: Inhibition of RANKL-induced C-src mRNA expression in C57BL/6 mouse bone marrow monocytes measured after 5 days in presence of M-CSF by SYBR green-dye based qRT-PCR analysis; type: functional, cell-based
[28] = (§1) Inhibition of RANKL-induced C57BL/6 mouse bone marrow monocytes differentiation into osteoclasts after 6 days in presence of M-CSF by tartrate-resistant acid phosphatase staining based assay; type: functional, cell-based; settings: C57BL/6, Bone marrow monocyte, 144 h
Bone marrow monocyte [29] = experiment: as §1; type: functional, cell-based
Mus musculus [30] = species: Mus musculus; experiment: Inhibition of RANKL-induced JNK phosphorylation in mouse […] cells at 10 uM pretreated for 4 hrs followed by RANKL stimulation measured for 60 mins by Western blot method; type: cell-based
Bone marrow monocyte [31] = experiment: Inhibition of RANKL-induced cathepsin K mRNA expression in C57BL/6 mouse bone marrow monocytes measured after 5 days in presence of M-CSF by SYBR green-dye based qRT-PCR analysis; type: functional, cell-based
[32] = Cytotoxicity against C57BL/6 mouse bone marrow monocytes assessed as reduction in cell viability after 72 hrs in presence of M-CSF by MTS assay; type: cell-based; settings: C57BL/6, Bone marrow monocyte
Mus musculus [33] = experiment: Protection against ovariectomized-induced osteoporosis in C57BL/6 mouse assessed as reduction in trabecular separation of femur at 20 mg/kg, ip administered for 60 days by micro computed tomography; type: functional, organism-based
Mus musculus [34] = experiment: Protection against ovariectomized-induced osteoporosis in C57BL/6 mouse assessed as increase in bone mineral density of femur at 20 mg/kg, ip administered for 60 days by micro computed tomography; type: functional, organism-based
[35] = Selectivity index, ratio of IC50 for C57BL/6 mouse bone marrow monocytes to IC50 for RANKL-induced C57BL/6 mouse bone marrow monocytes differentiation into osteoclasts; design: species or system Bone marrow monocyte
[36] = Potency index, ratio of maslinic acid IC50 to compound IC50 for RANKL-induced C57BL/6 mouse bone marrow monocytes differentiation into osteoclasts; type: functional, Bone marrow monocyte

In the case of `CNC(=O)c1cc2c(cc1OC)[C@@]1(C)Cc3nc(C)oc3C(C)(C)[C@@H]1CC2`, the Activity [1] is reported as “Toxic”, the inhibition (Bone marrow monocyte [2]) is reported as “Dose-dependent effect” and the Activity [3] is reported as “Non-Toxic”. The Activity (Mus musculus [4]) was “Active”, the inhibition (Bone marrow monocyte [5]) was “Tde” and the inhibition at 0.1 µM [6] was 72.3%. For the same compound, the inhibition (Mus musculus [7]) was “inactive”, the inhibition (Bone marrow monocyte [8]) was “Dose-dependent effect” and the inhibition (Bone marrow monocyte [9]) was “Tde”. The inhibition (Bone marrow monocyte [10]) was “Dose-dependent effect”, the inhibition (Mus musculus [11]) was “Active” and the Activity (Mus musculus [12]) was “Active”. For the same compound, the Activity (Mus musculus [13]) was “Active”, the Activity [14] was “Non-Toxic” and the inhibition at 2 µM [15] was 100%. The inhibition (Mus musculus [16]) was “Active”, the Activity (Mus musculus [17]) was “Non-Toxic” and the inhibition [18] was “Active”. For the same compound, the inhibition (Mus musculus [19]) was “Active”, the inhibition (Bone marrow monocyte [20]) was “Tde” and the inhibition at 0.5 µM [21] was 92.7%. For the same compound, the inhibition (Bone marrow monocyte [22]) was “Tde”, the inhibition (Mus musculus [23]) was “Active” and the inhibition (Bone marrow monocyte [24]) was “Tde”. For the same compound, the Activity (Mus musculus [25]) was “Active”, the Activity (Mus musculus [26]) was “Active” and the inhibition (Bone marrow monocyte [27]) was “Dose-dependent effect”. For the same compound, the IC50 [28] was 0.04 µM, the inhibition (Bone marrow monocyte [29]) was “Dose-dependent effect” and the inhibition (Mus musculus [30]) was “Active”. The inhibition (Bone marrow monocyte [31]) was “Dose-dependent effect”, the IC50 [32] was 88.3 µM and the Activity (Mus musculus [33]) was “Active”. For the same compound, the Activity (Mus musculus [34]) was “Active”, the “Ratio IC50” value [35] was 2208 and the “Ratio IC50” value [36] was 16.
